Data from PubChem BioAssay (NCI).
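Step 1: Grow cells in 96-well plates. Step 2: Expose to compound for 48 hours at 5 concentrations. Step 3: Interpolate endpoints linearly; if unreached, use highest concentration. GI50 marks 50% less growth. Definition used: TGI = concentration required for complete inhibition of growth.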 Where a SMILES comes first, the peptide text is derived from it. [ ]: non-standard residue; d: D form. 2Nal = N[CH](Cc1ccc2ccccc2c1)C(=O)O

Experiments:
Assay in all cases: NCI tumour cell line growth inhibition, 48 h
A498 renal = tested on: A498 renal
A549 NSCLC = tested on: A549 NSCLC
EKVX NSCLC = tested on: EKVX NSCLC
HCC-2998 colon = tested on: HCC-2998 colon
M14 melanoma = tested on: M14 melanoma
MCF7 breast = tested on: MCF7 breast
OVCAR-5 ovarian = tested on: OVCAR-5 ovarian
RXF 393 renal = tested on: RXF 393 renal
UACC-257 melanoma = tested on: UACC-257 melanoma
UACC-62 melanoma = tested on: UACC-62 melanoma

Compound	TGI (A498 renal) [µM]	TGI (A549 NSCLC) [µM]	TGI (EKVX NSCLC) [µM]	TGI (HCC-2998 colon) [µM]	TGI (M14 melanoma) [µM]	TGI (MCF7 breast) [µM]	TGI (OVCAR-5 ovarian) [µM]	TGI (RXF 393 renal) [µM]	TGI (UACC-257 melanoma) [µM]	TGI (UACC-62 melanoma) [µM]	GI50 (A498 renal) [µM]	GI50 (A549 NSCLC) [µM]	GI50 (EKVX NSCLC) [µM]	GI50 (HCC-2998 colon) [µM]	GI50 (M14 melanoma) [µM]	GI50 (MCF7 breast) [µM]	GI50 (OVCAR-5 ovarian) [µM]	GI50 (RXF 393 renal) [µM]	GI50 (UACC-257 melanoma) [µM]	GI50 (UACC-62 melanoma) [µM]
CC(O)CN1c2ccccc2Sc2ccc(Cl)cc21 (centres undefined)	> 10	> 10	> 10	> 10	> 10	> 10	> 10	> 10	> 10	> 10										
Cc1nnc(-c2ccc(C)c(-c3ccc(C(=O)NCc4ccc(Cl)cc4)cc3)c2)o1	> 25	> 25	> 25	> 25	> 25	> 19	> 25	> 25	> 25	> 25	7.03	11.5	7.02	17.5	15.7	7.37	> 25	6.28	8.07	8.21
CC(C)C(NC(=O)C(CCCCN)NC(=O)C(Cc1c[nH]c2ccccc12)NC(=O)C(Cc1ccc(O)cc1)NC(=O)C(CS)NC(=O)C(N)Cc1ccc2ccccc2c1)C(=O)NC(CS)C(=O)NC(C(N)=O)C(C)O (centres undefined) (H-[2Nal]CYWKVCT-NH2; configuration not given here)	> 100	> 100	> 100	> 100	> 100	> 12.5	> 12.5	> 100	> 100	> 100	> 100	> 100	> 100	> 100	> 100			> 100	> 100	> 100
CCOC(=O)c1cc(-c2ccc(OC)c(OC)c2)[nH]c1N/N=C/c1c(Cl)cccc1Cl	7.77	> 100	19.9	4.38	14.9	17.8	20.3	9.77	> 71.9	6.64	1.03	3.06	5.37	0.668	2.32	0.415	4.56	1.91	13.2	0.704
O=C(Nc1ccc2c(c1)OCO2)C(=O)c1c[nH]c2cc(F)ccc12	16.7	> 100	> 100	> 100	10.9	> 100	> 100	11	15.5	1.58	2.72	2.81	13.3	0.688	0.466	6.91	17.9	3.65	1.7	0.238
O=C1C(=O)N(c2cccc(C(F)(F)F)c2)C(=O)C(=O)C1c1nc2ccccc2s1	> 100	> 100	> 100	> 100	> 100	> 100	> 100	> 100	> 100	> 100										
CSc1ccc(C2=NN(C(C)=O)C(c3ccc(F)cc3)C2)cc1 (centres undefined)	26.8	30.9	64.7	49.8	28.8	41.3	43.7	34.6	45	21.1	12.5	12.1	21.6	20.4	14.4	17.2	18.9	18.5	22.4	7.97
CN1CCN(Cc2ccc(NC(=O)c3cncc(C#Cc4cnn5ccccc45)c3)cc2C(F)(F)F)CC1	1.89	3.56	2	3.07	1.39	2.29	5.09	1.66	3	2.38	0.821	0.723	0.786	0.902	0.576	0.408	1.12	0.693	1.15	0.996
CN(O)C(=S)c1ccccc1	68.2	> 100	> 95.2	44	> 38.7	> 100	> 100	14.5	57.8	6.21										
O=C(Cn1c(C(=O)c2ccccc2)nc2ccccc21)c1ccc(F)cc1	> 43.7	> 100	> 100	> 100	> 100	> 72	> 100	> 56.9	> 100	> 100	4.86	22.9	21.1	6.41	3.67	3.27	> 100	7.29	74.3	11.7
O=c1c(-c2ccc(O)cc2)coc2cc(OC3OC(CO)C(O)C(O)C3O)cc(O)c12 (centres undefined)	> 100	> 100	> 100	> 100	> 100	> 100	> 100	> 100	> 100	> 100		> 10			> 100	> 100	> 100	> 10		> 10
